# Measured values: US11033537B2, “LPT-723 and immune checkpoint inhibitor combinations and methods of treatment” (BIOMED VALLEY DISCOVERIES, INC., priority 2015, dated 2021)
# Experiment: Rat 28-day GLP toxicity study
# Type: in vivo, CD [Crl:CD (SD)] rats
# Experimental: Vehicle and Test Article Preparation: The vehicle, 2% TPGS/1.5% HPMCAS-HF/1.5% PVP-VA with 50 mM pH 5.0 sodium citrate in deionized water, was prepared for use weekly and was stored at room temperature when not in use. A correction factor of 4 was used to adjust for purity when preparing the LPT-723 formulations. Appropriate amounts of the LPT-723 were mixed with the vehicle to achieve nominal concentrations of 0.3, 0.6, and 1.2 mg/mL. Formulations of the LPT-723 were prepared daily, stored at room temperature, protected from light, and were dosed within 4 hours of preparation.
# Animal Acquisition and Acclimation: A total of 98 male and 98 female CD® [Crl:CD® (SD)] rats (approximately 6 to 7 weeks of age at receipt) were received from Charles River Laboratories, Portage, Mich. During the 10-day acclimation period, the animals were observed daily with respect to general health and any signs of disease. All animals were given a detailed clinical examination prior to selection for study. The animals were administered a sham dose of tap water on two occasions in the same manner and dose volume intended for use on study.
# Randomization, Assignment to Study, and Maintenance: Using a standard, by weight, measured value randomization procedure, 85 male and 85 female animals (weighing 228 to 283 g and 170 to 218 g, respectively, at randomization) were assigned to the control and treatment groups identified in the following table.
# Vehicle and LPT-723 Administration: Vehicle and LPT-723 were administered once daily for 22 days for main study animals at 12 mg/kg/day, for 23 days for TK animals at 12 mg/kg/day, and for 28 days for all animals at 0, 3, and 6 mg/kg/day. The animals were dosed via oral gavage at a dose volume of 10 mL/kg. The control group received the vehicle in the same manner as the treated groups. The vehicle and test article were dosed from stirred formulations at approximately the same time each day (±2 hours) based on the first animal dosed each day. Individual doses were based on the most recent body weights.
compound,measurement,setting,value
Cc1cc(-c2cncc(C(O)C(F)(F)F)c2)nc2c1C(=O)N(c1cnn(CC(F)F)c1)C2(C)C (centres unmarked) [LPT-723],therapeutic index,,< 4
same,tolerability,,poorly tolerated
same,NOAEL,"both sexes, CD [Crl:CD (SD)], in vivo, oral gavage once daily, 3, 6, 12 mg/kg/day, read-out: no observed adverse effect level (NOAEL)",< 3 mg/kg
same,circulating neutrophils,clinical chemistry,large increase in circulating neutrophils
same,tissue findings,particularly gastrointestinal tract,inflammatory state in multiple organs
